In patent publication US20260098025A1, “DIMERIC COMPOUNDS AS INHIBITORS OF GLYCOGEN SYNTHASE 1 (GYS1) AND METHODS OF USE THEREOF” (Maze Therapeutics, Inc., priority 2022, published 2026):

Target: T1, recombinant hGYS1/GN1 protein (Homo sapiens, UniProt P13807)
T1 sequence (P13807 1-737): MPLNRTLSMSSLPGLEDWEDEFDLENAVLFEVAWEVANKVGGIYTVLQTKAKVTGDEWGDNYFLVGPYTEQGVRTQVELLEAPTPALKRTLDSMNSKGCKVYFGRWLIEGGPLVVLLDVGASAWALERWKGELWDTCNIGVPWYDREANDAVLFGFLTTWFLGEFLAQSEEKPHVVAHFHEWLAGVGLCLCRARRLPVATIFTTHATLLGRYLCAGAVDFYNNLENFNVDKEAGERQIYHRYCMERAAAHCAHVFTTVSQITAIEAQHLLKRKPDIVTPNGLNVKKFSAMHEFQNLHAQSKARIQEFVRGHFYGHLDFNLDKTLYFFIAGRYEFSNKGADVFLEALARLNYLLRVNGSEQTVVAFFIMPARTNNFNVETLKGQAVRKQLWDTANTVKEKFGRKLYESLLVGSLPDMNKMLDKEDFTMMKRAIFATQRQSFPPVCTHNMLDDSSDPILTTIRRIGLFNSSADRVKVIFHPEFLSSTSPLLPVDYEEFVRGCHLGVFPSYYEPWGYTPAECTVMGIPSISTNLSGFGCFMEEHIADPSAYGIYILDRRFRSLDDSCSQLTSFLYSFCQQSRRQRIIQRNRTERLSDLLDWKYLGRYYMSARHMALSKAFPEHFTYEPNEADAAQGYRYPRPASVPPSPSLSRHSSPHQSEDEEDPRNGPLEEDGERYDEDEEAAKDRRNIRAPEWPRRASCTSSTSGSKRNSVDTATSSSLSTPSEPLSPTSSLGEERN
T1 sequence (P46976 1-350 partner): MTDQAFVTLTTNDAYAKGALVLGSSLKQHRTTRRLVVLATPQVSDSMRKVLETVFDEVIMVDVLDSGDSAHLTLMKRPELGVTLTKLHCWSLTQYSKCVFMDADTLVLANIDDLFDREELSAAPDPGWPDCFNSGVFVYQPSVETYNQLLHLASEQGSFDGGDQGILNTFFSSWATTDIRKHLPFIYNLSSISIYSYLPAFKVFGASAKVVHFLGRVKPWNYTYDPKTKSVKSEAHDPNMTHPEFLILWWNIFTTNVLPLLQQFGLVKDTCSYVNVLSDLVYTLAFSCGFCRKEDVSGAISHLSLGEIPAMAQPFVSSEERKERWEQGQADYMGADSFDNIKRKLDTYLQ
Experiment: GYS1 coupled enzyme assay (PK/LDH, NADH absorbance at 340 nm)
Type: biochemical
Conditions: geometric mean of at least 2 assay runs on separate days; hGYS1/GN1 50 nM, Glucose-6-Phosphate 1 mM, UDP-Glucose 0.8 mM
Excerpt: The GYS1 coupled enzyme assay is a kinetic biochemical assay that indirectly quantifies the rate of glycogen synthesis by coupling the conversion of GYS1 substrate UDP-glucose into UDP with downstream enzymatic reactions. UDP is released from UDP-glucose as glucose monomers are linked into the growing glycogen strand by GYS1. The coupled assay then proceeds with pyruvate kinase utilizing UDP and phospho(enol)pyruvate (PEP) to form pyruvate. Lactate dehydrogenase then converts pyruvate and NADH into lactate and NAD+. Oxidation of NADH to NAD+ can be measured continuously with a plate reader by quantifying the decrease in NADH absorbance at 340 nm over time.
Compounds that inhibit the hGYS1 enzyme and, subsequently, the downstream conversion of NADH to NAD+, were tested using assay ready plates (black, clear bottom 384 well plates) in a final DMSO reaction volume of 2.5% DMSO. The Assay Buffer contained 50 mM Tris pH 7.5, 2 mM MgCl2, and 100 mM KCl. Fresh stocks of BSA at a final concentration of 0.02% and TCEP at 1 mM were added before splitting buffer into hGYS1 buffer and substrate buffer. To the hGYS1 buffer, rabbit liver glycogen was added at a final concentration of 0.2% glycogen. Glucose-6-Phosphate was added at 1 mM, recombinant hGYS1/GN1 protein was added at 50 nM to the substrate buffer, phosphoenolpyruvate (PEP) was added at 2 mM, UDP-Glucose was added at 0.8 mM, NADH) was added at 0.6 mM, and Pyruvate Kinase/Lactate Dehydrogenase was added at 20 units/mL. The reaction was initiated by mixing hGYS1 buffer and substrate buffer at a 1:1 ratio. Both buffers were plated using a liquid dispensing device with hGYS1 buffer plated first followed by the substrate buffer. Plates were spun briefly to eliminate air bubbles and are immediately read in continuous mode at an absorbance of 340 nm, for 10 time points in one-minute increments, for a total of 10 minutes. The slope from these 10 time points was normalized to the positive and negative control wells. The duplicate % inhibition values are then averaged and fit to a Hill equation for dose response according to the Levenberg-Marquardt algorithm with the Hill equation maximum set to 100 and the minimum set to 0.
The results are shown in Table 2 below, which reports the IC50 of each compound. Unless otherwise specified, IC50 values are reported as the geometric mean of at least 2 assay runs on separate days. Each run represents the average of a technical replicate, where each compound was assayed twice in the same plate. As shown in the table below, the compounds of the present invention are potent inhibitors of human GYS1. A superscript “#” symbol in Table 2 indicates results from a single assay run.
Note that, in Table 2, the compounds are referred to by the corresponding Compound No. in Table 1, which is also referred to in the synthetic examples.

SMILES | IC50 [nM]
O=C(N[C@@H](c1ccccc1)c1ccc(C2CC2)c(F)n1)[C@@H]1C[C@@H](F)CN1C(=O)Cn1cc(OCCOCCOc2cn(CC(=O)N3C[C@H](F)C[C@H]3C(=O)N[C@@H](c3ccccc3)c3ccc(C4CC4)c(F)n3)nn2)nn1 [Compound 1, (2S,2′S,4R,4′R)-1,1′-(2,2′-(((oxybis(ethane-2,1-diyl))bis(oxy))bis(1H-1,2,3-triazole-4,1-diyl))bis(acetyl))bis(N-((S)-(5-cyclopropyl-6-fluoropyridin-2-yl)(phenyl)methyl)-4-fluoropyrrolidine-2-carboxamide)] | 10.8
O=C(COCCOCCOCCOCCOCCOCCOCCOCCOCCOCCOCCOCC(=O)N[C@@H](c1ccccc1)c1ccc(C2CC2)c(F)n1)N[C@@H](c1ccccc1)c1ccc(C2CC2)c(F)n1 [Compound 3, N^1,N^38-bis((S)-(5-cyclopropyl-6-fluoropyridin-2-yl)(phenyl)methyl)-3,6,9,12,15,18,21,24,27,30,33,36-dodecaoxaoctatriacontanediamide] | 5710
O=C(N[C@@H](c1ccccc1)c1ccc(C2CC2)c(F)n1)[C@@H]1C[C@@H](F)CN1C(=O)COCCOCC(=O)N1C[C@H](F)C[C@H]1C(=O)N[C@@H](c1ccccc1)c1ccc(C2CC2)c(F)n1 [Compound 4, (2S,2′S,4R,4′R)-1,1′-(2,2′-(ethane-1,2-diylbis(oxy))bis(acetyl))bis(N-((S)-(5-cyclopropyl-6-fluoropyridin-2-yl)(phenyl)methyl)-4-fluoropyrrolidine-2-carboxamide)] | 8910
O=C(COCCOCCOCCOCCOCCOCCOCCOCCOCCOCCOCC(=O)N[C@@H](c1ccccc1)c1ccc(C2CC2)c(F)n1)N[C@@H](c1ccccc1)c1ccc(C2CC2)c(F)n1 [Compound 6, N^1,N^35-bis((S)-(5-cyclopropyl-6-fluoropyridin-2-yl)(phenyl)methyl)-3,6,9,12,15,18,21,24,27,30,33-undecaoxapentatriacontanediamide] | 7500
O=C(N[C@@H](c1ccccc1)c1ccc(C2CC2)c(F)n1)[C@@H]1C[C@@H](F)CN1C(=O)Cn1cc(COCCOCc2cn(CC(=O)N3C[C@H](F)C[C@H]3C(=O)N[C@@H](c3ccccc3)c3ccc(C4CC4)c(F)n3)nn2)nn1 [Compound 7, (2S,2′S,4R,4′R)-1,1′-(2,2′-(((ethane-1,2-diylbis(oxy))bis(methylene))bis(1H-1,2,3-triazole-4,1-diyl))bis(acetyl))bis(N-((S)-(5-cyclopropyl-6-fluoropyridin-2-yl)(phenyl)methyl)-4-fluoropyrrolidine-2-carboxamide)] | 11.2
O=C(N[C@@H](c1ccccc1)c1ccc(C2CC2)c(F)n1)[C@@H]1C[C@@H](F)CN1C(=O)Cn1cc(COCCOc2cn(CC(=O)N3C[C@H](F)C[C@H]3C(=O)N[C@@H](c3ccccc3)c3ccc(C4CC4)c(F)n3)nn2)nn1 [Compound 8, (2S,4R)-N-((S)-(5-cyclopropyl-6-fluoropyridin-2-yl)(phenyl)methyl)-1-(2-(4-(2-((1-(2-((2S,4R)-2-(((S)-(5-cyclopropyl-6-fluoropyridin-2-yl)(phenyl)methyl)carbamoyl)-4-fluoropyrrolidin-1-yl)-2-oxoethyl)-1H-1,2,3-triazol-4-yl)methoxy)ethoxy)-1H-1,2,3-triazol-1-yl)acetyl)-4-fluoropyrrolidine-2-carboxamide] | 5.2
O=C(N[C@@H](c1ccccc1)c1ccc(C2CC2)c(F)n1)[C@@H]1C[C@@H](F)CN1C(=O)Cn1cc(OCCOc2cn(CC(=O)N3C[C@H](F)C[C@H]3C(=O)N[C@@H](c3ccccc3)c3ccc(C4CC4)c(F)n3)nn2)nn1 [Compound 9, (2S,2′S,4R,4′R)-1,1′-(2,2′-((ethane-1,2-diylbis(oxy))bis(1H-1,2,3-triazole-4,1-diyl))bis(acetyl))bis(N-((S)-(5-cyclopropyl-6-fluoropyridin-2-yl)(phenyl)methyl)-4-fluoropyrrolidine-2-carboxamide)] | 20.1

Further lines, results first:

IC50 [nM] | SMILES
5.6 | O=C(N[C@@H](c1ccccc1)c1ccc(C2CC2)c(F)n1)[C@@H]1C[C@@H](F)CN1C(=O)COCCOCCOCCOCCOCCOCCOCC(=O)N1C[C@H](F)C[C@H]1C(=O)N[C@@H](c1ccccc1)c1ccc(C2CC2)c(F)n1 [Compound 2, (2S,2′S,4R,4′R)-1,1′-(3,6,9,12,15,18,21-heptaoxatricosanedioyl)bis(N-((S)-(5-cyclopropyl-6-fluoropyridin-2-yl)(phenyl)methyl)-4-fluoropyrrolidine-2-carboxamide)]
5.4 | O=C(N[C@@H](c1ccccc1)c1ccc(C2CC2)c(F)n1)[C@@H]1C[C@@H](F)CN1C(=O)COCCOCCOCCOCCOCCOCC(=O)N1C[C@H](F)C[C@H]1C(=O)N[C@@H](c1ccccc1)c1ccc(C2CC2)c(F)n1 [Compound 5, (2S,2′S,4R,4′R)-1,1′-(3,6,9,12,15,18-hexaoxaicosanedioyl)bis(N-((S)-(5-cyclopropyl-6-fluoropyridin-2-yl)(phenyl)methyl)-4-fluoropyrrolidine-2-carboxamide)]
14.4 | O=C(N[C@@H](c1ccccc1)c1ccc(C2CC2)c(F)n1)[C@@H]1C[C@@H](F)CN1C(=O)COCCOCCOCCOCCOCC(=O)N1C[C@H](F)C[C@H]1C(=O)N[C@@H](c1ccccc1)c1ccc(C2CC2)c(F)n1 [Compound 10, (2S,2′S,4R,4′R)-1,1′-(3,6,9,12,15-pentaoxaheptadecanedioyl)bis(N-((S)-(5-cyclopropyl-6-fluoropyridin-2-yl)(phenyl)methyl)-4-fluoropyrrolidine-2-carboxamide)]
14.6 | O=C(N[C@@H](c1ccccc1)c1ccc(C2CC2)c(F)n1)[C@@H]1C[C@@H](F)CN1C(=O)COCCOCCOCCOCC(=O)N1C[C@H](F)C[C@H]1C(=O)N[C@@H](c1ccccc1)c1ccc(C2CC2)c(F)n1 [Compound 11, (2S,2′S,4R,4′R)-1,1′-(3,6,9,12-tetraoxatetradecanedioyl)bis(N-((S)-(5-cyclopropyl-6-fluoropyridin-2-yl)(phenyl)methyl)-4-fluoropyrrolidine-2-carboxamide)]
82.1 | O=C(N[C@@H](c1ccccc1)c1ccc(C2CC2)c(F)n1)[C@@H]1C[C@@H](F)CN1C(=O)COCCOCCOCC(=O)N1C[C@H](F)C[C@H]1C(=O)N[C@@H](c1ccccc1)c1ccc(C2CC2)c(F)n1 [Compound 12, (2S,2′S,4R,4′R)-1,1′-(2,2′-((oxybis(ethane-2,1-diyl))bis(oxy))bis(acetyl))bis(N-((S)-(5-cyclopropyl-6-fluoropyridin-2-yl)(phenyl)methyl)-4-fluoropyrrolidine-2-carboxamide)]
